According to ChEMBL document CHEMBL1126442 (Bioorg Med Chem Lett, 1992):

What was measured:
[1] = biological target: T1, Muscarinic acetylcholine receptor M2 (Rattus norvegicus, UniProt P10980); test: Dissociation constant for the blocking of heart muscarinic M2 receptor was reported.
T1 sequence (P10980 whole entry): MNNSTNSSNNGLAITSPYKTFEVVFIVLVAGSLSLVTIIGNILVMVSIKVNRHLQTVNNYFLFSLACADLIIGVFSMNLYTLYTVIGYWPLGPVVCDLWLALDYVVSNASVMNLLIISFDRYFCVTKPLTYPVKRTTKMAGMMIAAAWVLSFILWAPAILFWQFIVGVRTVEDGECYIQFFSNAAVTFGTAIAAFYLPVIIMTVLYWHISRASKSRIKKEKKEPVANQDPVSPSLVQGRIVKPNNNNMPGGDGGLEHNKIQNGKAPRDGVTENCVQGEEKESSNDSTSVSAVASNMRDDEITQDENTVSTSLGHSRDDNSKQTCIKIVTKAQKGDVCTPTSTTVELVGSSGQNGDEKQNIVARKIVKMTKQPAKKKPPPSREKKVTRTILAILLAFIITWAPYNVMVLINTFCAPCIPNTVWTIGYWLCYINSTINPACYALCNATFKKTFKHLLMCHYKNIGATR

[2] = biological target: T2, Muscarinic acetylcholine receptor M4 (Mus musculus, UniProt P32211); test: Potency assessed to inhibit cAMP levels in N1E-115 neuroblastoma cells, for blocking oxotremorine-M in functional assay for Muscarinic acetylcholine receptor M4; assay type: cell-based
T2 sequence (P32211 whole entry): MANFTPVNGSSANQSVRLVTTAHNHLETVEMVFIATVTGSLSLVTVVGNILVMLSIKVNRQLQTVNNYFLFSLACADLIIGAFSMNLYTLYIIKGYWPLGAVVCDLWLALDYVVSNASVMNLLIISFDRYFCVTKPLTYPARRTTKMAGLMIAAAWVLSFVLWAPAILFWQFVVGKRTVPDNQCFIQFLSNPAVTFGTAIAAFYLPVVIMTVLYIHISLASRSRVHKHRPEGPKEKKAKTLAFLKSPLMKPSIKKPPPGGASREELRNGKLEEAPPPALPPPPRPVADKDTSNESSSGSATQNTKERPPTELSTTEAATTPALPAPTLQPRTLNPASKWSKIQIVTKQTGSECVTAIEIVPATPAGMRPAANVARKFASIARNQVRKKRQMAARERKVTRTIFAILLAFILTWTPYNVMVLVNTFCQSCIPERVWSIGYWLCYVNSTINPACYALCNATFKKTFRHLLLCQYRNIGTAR

[3] = species on record: Rattus norvegicus; test: Ability to reverse oxotremorine-M mediated inhibition of evoked acetylcholine release from hippocampal tissue; assay type: functional, Hippocampus
[4] = biological target: T1, Muscarinic acetylcholine receptor M2; test: Dissociation constant for the blocking of cardiac muscarinic M2 receptor was reported.; design: species or system Heart
[5] = biological target: T3, Muscarinic acetylcholine receptor M4 (Rattus norvegicus, UniProt P08485); test: Potency assessed to inhibit cAMP levels in rat striatum, for blocking oxotremorine-M, in functional assay for Muscarinic acetylcholine receptor M4; assay type: tissue-based
T3 sequence (P08485 whole entry): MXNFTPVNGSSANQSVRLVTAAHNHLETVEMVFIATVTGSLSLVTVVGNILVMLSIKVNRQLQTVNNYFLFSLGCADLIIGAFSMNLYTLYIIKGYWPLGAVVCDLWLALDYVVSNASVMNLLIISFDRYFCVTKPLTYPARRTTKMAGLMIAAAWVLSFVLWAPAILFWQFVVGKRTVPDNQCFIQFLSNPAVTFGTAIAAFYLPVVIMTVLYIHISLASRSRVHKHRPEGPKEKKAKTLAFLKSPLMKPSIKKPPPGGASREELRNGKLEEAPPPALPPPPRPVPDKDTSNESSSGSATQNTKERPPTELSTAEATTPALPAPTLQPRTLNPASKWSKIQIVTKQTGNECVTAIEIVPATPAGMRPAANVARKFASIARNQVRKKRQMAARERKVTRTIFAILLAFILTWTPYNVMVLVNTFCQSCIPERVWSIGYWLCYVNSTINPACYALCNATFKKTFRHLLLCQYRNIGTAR

[6] = biological target: T1, Muscarinic acetylcholine receptor M2; test: Dissociation constant for the blocking of brainstem muscarinic M2 receptor was reported.; assay type: tissue-based
[7] = biological target: T4, Muscarinic acetylcholine receptor M1 (Homo sapiens, UniProt P11229); test: Dissociation constant for human Muscarinic acetylcholine receptor M1 was determined.
T4 sequence (P11229 whole entry): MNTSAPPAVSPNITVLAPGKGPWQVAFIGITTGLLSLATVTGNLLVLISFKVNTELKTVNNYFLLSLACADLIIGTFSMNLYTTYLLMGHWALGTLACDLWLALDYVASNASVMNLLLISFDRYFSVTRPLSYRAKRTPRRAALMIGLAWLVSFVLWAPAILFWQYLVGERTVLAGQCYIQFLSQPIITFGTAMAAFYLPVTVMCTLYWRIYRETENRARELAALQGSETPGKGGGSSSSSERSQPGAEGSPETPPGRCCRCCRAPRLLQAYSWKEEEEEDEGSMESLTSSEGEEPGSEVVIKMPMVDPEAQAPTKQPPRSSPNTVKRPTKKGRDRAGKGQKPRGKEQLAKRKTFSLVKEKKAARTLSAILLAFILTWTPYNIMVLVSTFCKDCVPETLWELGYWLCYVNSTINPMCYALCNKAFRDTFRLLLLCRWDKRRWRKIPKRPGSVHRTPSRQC

[8] = biological target: T5, Muscarinic acetylcholine receptor M2 (Homo sapiens, UniProt P08172); test: Dissociation constant for human Muscarinic acetylcholine receptor M2 was determined.
T5 sequence (P08172 whole entry): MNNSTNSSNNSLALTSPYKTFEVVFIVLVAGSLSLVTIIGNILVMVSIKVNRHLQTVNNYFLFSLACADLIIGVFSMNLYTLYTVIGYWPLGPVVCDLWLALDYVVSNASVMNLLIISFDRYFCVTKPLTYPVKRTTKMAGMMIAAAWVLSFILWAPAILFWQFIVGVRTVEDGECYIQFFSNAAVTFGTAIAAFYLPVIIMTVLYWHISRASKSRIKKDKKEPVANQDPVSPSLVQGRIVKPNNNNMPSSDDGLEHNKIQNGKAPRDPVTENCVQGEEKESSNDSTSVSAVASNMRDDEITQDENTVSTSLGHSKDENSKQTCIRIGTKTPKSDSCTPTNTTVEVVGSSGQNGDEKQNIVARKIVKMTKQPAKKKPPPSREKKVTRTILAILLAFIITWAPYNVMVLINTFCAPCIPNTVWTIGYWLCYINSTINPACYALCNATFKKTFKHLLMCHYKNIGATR

Kd [7]	Kd [8]	SMILES	Kd [1]	Kd [2]	Kd [3]	Kd [4]	Kd [5]	Kd [6]
		C[C@@H]1OC(=O)[C@H]2C[C@H]3CCCC[C@@H]3[C@@H](/C=C/[C@H]3CCC[C@H](C)N3C)[C@@H]12 [HIMBACINE]	6.9 nM	11.3 nM	8.5 nM	3 nM	5.4 nM	4.6 nM
9700 nM	4400 nM	C[C@@H]1OC(=O)C[C@H]1C/C=C/[C@H]1CCCCN1C						1210 nM
